Results published in US6737383B1, “Herbicidal oxadiazolidines” (priority 1999, dated 2004).

Tests used:
giant foxtail = assay: Test B pre/postemergence giant foxtail; assay type: in vivo, Setaria faberii
Summary of the method: (§1)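 Test chemicals in a non-phytotoxic solvent mixture with surfactant were sprayed preemergence onto planted seeds and postemergence onto plants 2 to 18 cm tall (1- to 4-leaf stage). After twelve to sixteen days in a greenhouse, injury was visually rated against untreated controls from 0 (no effect) to 10 (complete control).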

morningglory = assay: Test B pre/postemergence morningglory; assay type: in vivo, Ipomoea hederacea
Summary of the method: as §1

pigweed = assay: Test B pre/postemergence pigweed; assay type: in vivo, Amaranthus retroflexus
Summary of the method: as §1

winter wheat [1] = assay: Test E winter wheat; assay type: in vivo, Triticum aestivum; conditions: Postemergence
Summary of the method: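 For postemergence, sowings are timed so plants reach the 1- to 4-leaf stage at spraying. Test compound is applied in a surfactant-containing solvent mixture that is non-phytotoxic. Response is judged by eye against untreated controls after approximately 21 to 28 days.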

blackgrass = assay: Test E blackgrass; assay type: in vivo, Alopecurus myosuroides; conditions: Preemergence; for Blackgrass plant response rating (0 to 100 scale): Rate 250 g/ha
green foxtail = assay: Test E green foxtail; assay type: in vivo, Setaria viridis; conditions: Preemergence; for Green foxtail plant response rating (0 to 100 scale): Rate 250 g/ha
Italian ryegrass = assay: Test E Italian ryegrass; assay type: in vivo, Lolium multiflorum; conditions: Preemergence; for I. Ryegrass plant response rating (0 to 100 scale): Rate 250 g/ha
winter wheat [2] = assay: Test E winter wheat; assay type: in vivo, Triticum aestivum; conditions: Preemergence; for Wheat (winter) plant response rating (0 to 100 scale): Rate 250 g/ha
wild oat = assay: Test E wild oat; assay type: in vivo, Avena fatua; conditions: Preemergence; for Wild oat plant response rating (0 to 100 scale): Rate 250 g/ha
winter barley = assay: Test E winter barley; assay type: in vivo, Hordeum vulgare; conditions: Preemergence; for Barley (winter) plant response rating (0 to 100 scale): Rate 250 g/ha
[3] = Preemergence, Rate 31 g/ha, visual rating, scale 0 to 10 (0 no effect, 10 complete control)
[4] = Preemergence, Rate 62 g/ha, scale of 0 to 10 where 0 is no effect and 10 is complete control
[5] = Preemergence, Rate 250 g/ha, scale of 0 to 10 where 0 is no effect and 10 is complete control
[6] = Rate 31 g/ha, Postemergence, scale 0 to 10
[7] = Rate 62 g/ha, Postemergence, scale 0 to 10 (0 no effect, 10 complete control)
[8] = Rate 125 g/ha, Postemergence, scale of 0 to 10 where 0 is no effect and 10 is complete control
[9] = Rate 125 g/ha, Preemergence, scale of 0 to 10 where 0 is no effect and 10 is complete control
[10] = Rate 250 g/ha, Postemergence, scale of 0 to 10 where 0 is no effect and 10 is complete control
[11] = Rate 1000 g/ha, 0 to 100 scale where 0 is no effect and 100 is complete control
[12] = Rate 500 g/ha, 0 to 100 scale, 0 is no effect, 100 is complete control
[13] = Rate 500 g/ha, 0 to 100 scale (0 no effect, 100 complete control)
[14] = Rate 1000 g/ha, 0 to 100 scale, 0 no effect, 100 complete control
[15] = Postemergence, Rate 125 g/ha, scale of 0 to 10 where 0 is no effect and 10 is complete control
[16] = Preemergence, Rate 125 g/ha, 0 is no effect, 10 is complete control
[17] = Preemergence, Rate 250 g/ha, scale 0 to 10, 0 is no effect, 10 is complete control
[18] = Preemergence, Rate 500 g/ha, scale 0 to 10 (0 no effect, 10 complete control)
[19] = Rate 62 g/ha, Postemergence, scale of 0 to 10 where 0 is no effect and 10 is complete control
[20] = Rate 250 g/ha, Postemergence, scale 0 to 10, 0 is no effect, 10 is complete control
[21] = Rate 500 g/ha, Postemergence, scale 0 to 10
[22] = Rate 500 g/ha, 0 to 100 scale where 0 is no effect and 100 is complete control

For `CC(C)=CCn1c(=O)on(C(=O)N(c2ccc(F)cc2)C(C)C)c1=O` [Compound 288], the “Giant foxtail plant response rating” value (giant foxtail; [3]) was 0, the “Giant foxtail plant response rating” value (giant foxtail; [4]) was 5 and the “Giant foxtail plant response rating” value (giant foxtail; [5]) was 10. For the same compound, the “Giant foxtail plant response rating” value (giant foxtail; [6]) was 0, the “Giant foxtail plant response rating” value (giant foxtail; [7]) was 0 and the “Giant foxtail plant response rating” value (giant foxtail; [8]) was 0. For the same compound, the “Giant foxtail plant response rating” value (giant foxtail; [9]) was 9, the “Plant response rating, Giant foxtail” value (giant foxtail; [10]) was 0 and the “Morningglory plant response rating” value (morningglory; [3]) was 0. The “Morningglory plant response rating” value (morningglory; [4]) was 0, the “Morningglory plant response rating” value (morningglory; [5]) was 0 and the “Morningglory plant response rating” value (morningglory; [6]) was 3. For the same compound, the “Morningglory plant response rating” value (morningglory; [7]) was 7, the “Morningglory plant response rating” value (morningglory; [8]) was 8 and the “Morningglory plant response rating” value (morningglory; [9]) was 0. For the same compound, the “Plant response rating, Morningglory” value (morningglory; [10]) was 8, the “Redroot pigweed plant response rating” value (pigweed; [3]) was 0 and the “Redroot pigweed plant response rating” value (pigweed; [4]) was 0. The “Redroot pigweed plant response rating” value (pigweed; [5]) was 0, the “Redroot pigweed plant response rating” value (pigweed; [6]) was 0 and the “Redroot pigweed plant response rating” value (pigweed; [7]) was 0. The “Redroot pigweed plant response rating” value (pigweed; [8]) was 0, the “Redroot pigweed plant response rating” value (pigweed; [9]) was 0 and the “Plant response rating, Redroot pigweed” value (pigweed; [10]) was 0. The “Plant response rating, Wheat (winter)” value (winter wheat [1]; [11]) was 40, the “Wheat (winter) plant response rating” value (winter wheat [1]; Rate 250 g/ha, 0 to 100 scale where 0 is no effect and 100 is complete control) was 35 and the “Plant response rating, Wheat (winter)” value (winter wheat [1]; [12]) was 30. For the same compound, the “Blackgrass plant response rating (0 to 100 scale)” value (blackgrass) was 50, the “Plant response rating, Blackgrass” value (blackgrass; [13]) was 50 and the “Green foxtail plant response rating (0 to 100 scale)” value (green foxtail) was 50. The “Plant response rating, Green foxtail” value (green foxtail; [13]) was 60, the “Plant response rating, Green foxtail” value (green foxtail; [14]) was 100 and the “I. Ryegrass plant response rating (0 to 100 scale)” value (Italian ryegrass) was 30. The “Plant response rating, I. Ryegrass” value (Italian ryegrass; [13]) was 50, the “Plant response rating, I. Ryegrass” value (Italian ryegrass; [14]) was 60 and the “Wheat (winter) plant response rating (0 to 100 scale)” value (winter wheat [2]) was 40. For the same compound, the “Plant response rating, Wheat (winter)” value (winter wheat [2]; [13]) was 30, the “Plant response rating, Wheat (winter)” value (winter wheat [2]; [14]) was 55 and the “Wild oat plant response rating (0 to 100 scale)” value (wild oat) was 20. For the same compound, the “Plant response rating, Wild oat” value (wild oat; [13]) was 30, the “Plant response rating, Wild oat” value (wild oat; [14]) was 50 and the “Barley (winter) plant response rating (0 to 100 scale)” value (winter barley) was 0. For the same compound, the “Plant response rating, Barley (winter)” value (winter barley; [13]) was 5 and the “Plant response rating, Barley (winter)” value (winter barley; [14]) was 10.
For `CC1CCCCC1n1c(=O)on(C(=O)N(c2ccc(F)cc2F)C(C)C)c1=O` (stereo not shown) [Compound 172], the “Giant foxtail plant response rating” value (giant foxtail; [15]) was 0, the “Giant foxtail plant response rating” value (giant foxtail; [4]) was 8 and the “Giant foxtail plant response rating (0 to 10 scale)” value (giant foxtail; [16]) was 9. The “Giant foxtail plant response rating” value (giant foxtail; [17]) was 10, the “Giant foxtail plant response rating” value (giant foxtail; [18]) was 10 and the “Giant foxtail plant response rating” value (giant foxtail; [19]) was 0. The “Plant response rating, Giant foxtail” value (giant foxtail; [20]) was 0, the “Giant foxtail plant response rating” value (giant foxtail; [21]) was 0 and the “Morningglory plant response rating” value (morningglory; [15]) was 5. For the same compound, the “Morningglory plant response rating” value (morningglory; [4]) was 0, the “Morningglory plant response rating (0 to 10 scale)” value (morningglory; [16]) was 0 and the “Morningglory plant response rating” value (morningglory; [17]) was 0. For the same compound, the “Morningglory plant response rating” value (morningglory; [18]) was 0, the “Morningglory plant response rating” value (morningglory; [19]) was 2 and the “Plant response rating, Morningglory” value (morningglory; [20]) was 5. The “Morningglory plant response rating” value (morningglory; [21]) was 8, the “Redroot pigweed plant response rating” value (pigweed; [15]) was 0 and the “Redroot pigweed plant response rating” value (pigweed; [4]) was 0. The “Redroot pigweed plant response rating (0 to 10 scale)” value (pigweed; [16]) was 6, the “Redroot pigweed plant response rating” value (pigweed; [17]) was 8 and the “Redroot pigweed plant response rating” value (pigweed; [18]) was 8. The “Redroot pigweed plant response rating” value (pigweed; [19]) was 0, the “Plant response rating, Redroot pigweed” value (pigweed; [20]) was 3 and the “Redroot pigweed plant response rating” value (pigweed; [21]) was 7. For the same compound, the “Plant response rating, Wheat (winter)” value (winter wheat [1]; Rate 1000 g/ha, 0 to 100 scale, 0 is no effect and 100 is complete control) was 50, the “Plant response rating, Wheat (winter)” value (winter wheat [1]; [12]) was 40 and the “Blackgrass plant response rating (0 to 100 scale)” value (blackgrass) was 50. The “Plant response rating, Blackgrass” value (blackgrass; [22]) was 60, the “Plant response rating, Blackgrass” value (blackgrass; [11]) was 80 and the “Green foxtail plant response rating (0 to 100 scale)” value (green foxtail) was 60. For the same compound, the “Plant response rating, Green foxtail” value (green foxtail; [22]) was 85, the “Plant response rating, Green foxtail” value (green foxtail; [11]) was 100 and the “I. Ryegrass plant response rating (0 to 100 scale)” value (Italian ryegrass) was 30. For the same compound, the “Plant response rating, I. Ryegrass” value (Italian ryegrass; [22]) was 65, the “Plant response rating, I. Ryegrass” value (Italian ryegrass; [11]) was 80 and the “Wheat (winter) plant response rating (0 to 100 scale)” value (winter wheat [2]) was 10. For the same compound, the “Plant response rating, Wheat (winter)” value (winter wheat [2]; [22]) was 20, the “Plant response rating, Wheat (winter)” value (winter wheat [2]; [11]) was 30 and the “Wild oat plant response rating (0 to 100 scale)” value (wild oat) was 30. The “Plant response rating, Wild oat” value (wild oat; [22]) was 40, the “Plant response rating, Wild oat” value (wild oat; [11]) was 50 and the “Barley (winter) plant response rating (0 to 100 scale)” value (winter barley) was 40. For the same compound, the “Plant response rating, Barley (winter)” value (winter barley; [22]) was 40 and the “Plant response rating, Barley (winter)” value (winter barley; [11]) was 20.
